Reference: US20230405078A1, “DETECTION AND TREATMENT OF INTESTINAL FIBROSIS” (THE REGENTS OF THE UNIVERSITY OF CALIFORNIA, priority 2020, published 2023)
Where no end group is shown, it is not given here.

Tested on: ERK1/2 phosphorylation
Assay: Phospho-ERK1/2 ELISA in CCD-18Co fibroblasts
Assay type: cell-based, human
Description: FIG. 27. Elafin inhibited ERK1/2 phosphorylation in intestinal fibroblasts via PAR2. (A) Serum starved CCD-18Co and primary stricturing CD patient-derived colonic fibroblasts were transiently transfected with either control siRNA or ZEB1 siRNA overnight, followed by treatment with 10 ng/ml TGF-β1 or 100 μg/ml stricturing CD patient-derived serum exosomes (CDSE) for 24 hours. (B) CCD-18Co fibroblasts were treated with DMSO, PAR1 inhibitor (SCH79797), or PAR2 inhibitor (GB88) for 2 hours. GB88 inhibited ERK1/2 phosphorylation. (C) CCD-18Co fibroblasts were pretreated with DMSO, PAR1 agonist, or PAR2 agonists for 30 minutes, followed by TGF-β1 10 ng/ml. Two hours later, elafin (1 μg/ml) and incubated for 2 hours. Elafin inhibited ERK1/2 phosphorylation, which was reversed by PAR2 agonist. […] Phospho-ERK1/2, ProCOL1A1, COL1A2, and ZEB1 protein were determined by ELISA. miR205-5p expression was determined by real-time RT-PCR. […]
FIG. 28. […] (D) Quantification of cathepsin S signals (B7-8) and control signals (A1-2 and E1-2) on the protease array using Bio-Rad Image Lab Software. […] Phospho-ERK1/2 was determined by ELISA. […] ProCOL1A1 and COL1A2 were determined by ELISA. […]

## Elafin: small (6 kDa) human elastase-specific protease inhibitor and antimicrobial peptide; active form SEQ ID NO: 2 (AQEPVKGPVSTKPGSCPIILIRCAMLNPPNRCLKDTDCPGIKKCCEGSCGMACFVPQ; listed as Homo sapiens)
CCD-18Co fibroblasts
  ERK1/2 phosphorylation: inhibited

## SLIGKV-NH2 [PAR2 agonist, reference compound]
Elafin 1 μg/ml, 2 hours
  effect on elafin-mediated inhibition of ERK1/2 phosphorylation: reversed
